“And” between values parts separate entries of the source, which are not always exact repeats. Identical values can stand only once. “Also recorded” adds a separate entry of the source.
What was measured:
avidin (AV) [1] = target: T1, avidin (AV) (Gallus gallus, UniProt P02701); assay: Dissociation (displacement/replacement) of dye-labeled biotin complexes by unlabeled B7; type: binding; details: AB1; probe 20 nM, AV 260 nM; unlabeled B7 2,000 nM; 20°C
T1 construct: purchased Calbiochem (La Jolla, CA)
T1 sequence (P02701 25-152): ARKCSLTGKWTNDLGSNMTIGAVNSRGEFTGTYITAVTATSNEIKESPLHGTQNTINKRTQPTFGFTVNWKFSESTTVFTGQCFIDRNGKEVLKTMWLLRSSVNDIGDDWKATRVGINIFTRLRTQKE
Protocol: Biotin dissociation was determined using labelled biotin (BcO and BFl) displaced by unlabeled biotin using minimally occupied and fully occupied binding sites. In the minimally occupied measurements, SAV is prepared with less than one site on average occupied by labelled biotin (AB1), using 800 nM SAV and 40 nM of BcO or BFl. For saturated SAV-labelled biotin (AB4) complexes, equimolar binding sites and labelled ligand were prepared, 40 nM SAV and 40 nM of BcO or BFl. The AB1 complexes were challenged in displacement experiments with several concentrations of unlabeled B7 (1500 nM, 1750 nM, 2000 nM and 2500 nM) at 20 ± 0.1°C. […]
The rss measurements were collected using the Giblin-Parkhurst modification of the Wampler-Desa method as described previously. The fluorescence signal was detected in a model A-1010 Alphascan fluorimeter (Photon Technologies, Inc., Birmingham, NJ) equipped with an R928 PMT (Hamamatsu, Bridgewater, NJ). […] The fluorimeter G factor was determined using a film polarizer and analyzer with an excitation at 488 nm provided by a xenon arc lamp (model A1010, Photon Technologies Inc, Princeton, NJ). The dissociation reactions of dye-labeled B7 and protein complexes were monitored by fluorescence changes and were also collected in the fluorimeter described above. […]

[2] = Intrinsic lifetime, dynamic quantum yield and fraction of non-statically quenched molecules, unbound probe; type: physicochemical; details: for t° (2), intrinsic lifetime of the fluorescence dye: in ns; for 1-S (4) = QY/F, fraction of non-statically quenched molecules / F (3) = Sat/t° / S: unbound dye
avidin (AV) [3] = target: T1, avidin (AV); assay: Absorbance and fluorescence emission spectra, AV complex; type: physicochemical; details: for Maximum Absorbance / Maximum Emission: AV complex (AB1); for Abs (nm) / Emission (nm): complex with AV
Protocol: (§1) The lifetimes (τ), steady state anisotropies (rss), time-resolved anisotropies (rt) and quantum yields (QY) of the complexes (at 20 ± 0.1°C and pH 8) were collected with a dye-labeled B7 probe concentration of 20–40 nM and 1040–2080 nM of either protein (AV or SAV) to ensure that only one binding site in the tetramer was filled with a ligand (AB1 filling model).
The QY values were obtained by using a reference fluorophore of known quantum yield and were calculated according to Parker and Rees, where the reference dye was fluorescein in 0.1N sodium hydroxide solution [46]. The emission fluorescence scans were collected from 480 nm to 700 nm with the excitation light set at 460 nm provided by the xenon arc lamp described above. These measurements were made on the AB1 complexes at high protein concentration.
Supplementary file pone.0204194.s001.docx: S1 Fig Absorbance spectra of dye-labeled B7 probes and respective complexes with AV and SAV. […] The spectra are normalized to the calculated molar absorptivies. […] The labeled probes and protein concentrations were 1 μM and 10 μM, respectively. (DOCX) Click here for additional data file.
Supplementary file pone.0204194.s002.docx: S2 Fig Fluorescence emission spectra of dye-labeled B7 and respective complexes with AV and SAV. […] The probe and protein concentrations were 20 nM and 1040 nM (AB1 filling model), respectively. (DOCX) Click here for additional data file.

avidin (AV) [4] = target: T1, avidin (AV); assay: Fluorescence lifetimes, AV complex; type: physicochemical; details: for Lifetime τ: AV complex (AB1), 20°C, pH 8; for t (1), fluorescence lifetime: complex with AV, t for BFl and BcO, average lifetime for B-DNAds*Fl, in ns
Protocol: as §1
The lifetimes were collected in a FluoTime100 fluorescence spectrometer (PicoQuant, GmbH, Berlin, Germany) with the excitation light source provided by a picosecond pulsed diode laser (PicoQuant, GmbH, Berlin, Germany) at 470 nm and 20 MHz. The emission was collected at 520 nm through a non-fluorescing 520 nm interference filter (Oriel Corp., Stratford, CT) followed by a liquid filter of 1cm path length containing 24 mM acetate buffered dichromate at pH 4, between the sample and detector to eliminate traces of excitation light. The fluorescence decays were fit by a nonlinear least-squares minimization based on the Marquardt algorithm embedded in the Fluofit software (PicoQuant GmbH). Twenty-eight decays were collected per sample, the decays were grouped in four sets, consisting of seven sample decays and one Instrument Response Function, IRF, for deconvolution proposes. The decay sets were globally fitted to mono- or bi-exponential decay models that were discriminated using the statistical parameter χ^2. The rt data were acquired with the fluorimeter described above equipped with a polarizer and an analyzer to acquire the parallel VV(t) and perpendicular VH(t) decays. The PicoQuant G factor was calculated according to: G = ∫HV(t)dt/∫HH(t)dt, where HV(t) and HH(t) were the decays collected with the emission polarizer selecting vertical and horizontal E-vector passing orientations, respectively, and the excitation polarizer set at horizontally position.

Row | SMILES | koff displacement / koff replacement of AV complexes (avidin (AV) [1]) | t° (2), intrinsic lifetime of the fluorescence dye [2] | 1-S (4) = QY/F, fraction of non-statically quenched molecules [2] | F (3) = Sat/t° [2] | S [2] | Maximum Absorbance (avidin (AV) [3]) | Maximum Emission (avidin (AV) [3]) | Abs (nm) (avidin (AV) [3]) | Emission (nm) (avidin (AV) [3]) | Lifetime τ (avidin (AV) [4]) | t (1), fluorescence lifetime (avidin (AV) [4])
1 | O=C(CCCC[C@@H]1SC[C@@H]2NC(=O)N[C@@H]21)NCCNC(=O)c1ccc(-c2c3ccc(=O)cc-3oc3cc(O)ccc23)c(C(=O)O)c1 [BFl, Biotin-4-fluorescein] | could not detect neither displacement nor replacement; also recorded: could not be detected | 5.2 ± 0.2 | 0.65 (2×) and 0.65 ± 0.06 | 0.81 ± 0.04 | 0.35 | 498 nm | 528 nm | 498 nm | 528 nm | 4.22 ± 0.01 ns | 4.22 ± 0.01
2 | NC(CCCCNC(=O)CCCC[C@@H]1SC[C@@H]2NC(=O)N[C@@H]21)C(=O)NCCCCCNC(=O)c1ccc(-c2c3cc(F)c(=O)cc-3oc3cc(O)c(F)cc23)c(C(=O)O)c1 (stereo partly shown) [BcO, Oregon green 488 Biocytin] | could not detect neither displacement nor replacement; also recorded: could not be detected | 4.4 ± 0.1 | 1 and 1.00 ± 0.02 | 0.85 ± 0.02 | 0 | 497 nm | 524 nm | 497 nm | 524 nm | 4.35 ± 0.01 ns | 4.35 ± 0.01

Source: article PMC6394990, “Detailed characterization of the solution kinetics and thermodynamics of biotin, biocytin and HABA binding to avidin and streptavidin” (PLoS ONE, 2019)
